ChEMBL document CHEMBL1201862, “PubChem BioAssay data set” (2004)
Active and inactive are the calls of the source.

Tests used:
BJ [1] = experiment: cytotoxicity toward BJ-TERT fibroblasts, dose response, cell-based, RAS-independent, luminescence (AID 1933); format: functional; details: Homo sapiens
BJ [2] = experiment: cytotoxicity toward BJ-TERT-LT-ST fibroblasts, dose response, cell-based, RAS-independent, luminescence (AID 1935); format: functional; details: Homo sapiens;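 note: BJ fibroblasts immortalized with TERT plus LT and ST oncogenes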
[3] = inhibitors of SNCA 5'UTR-driven reporter translation, confirmation, H4 neuroglioma cells, luminescence (AID 1988); format: functional, cell-based
[4] = inhibitors of firefly luciferase expression or activity, dose response, H4 neuroglioma cells, luminescence (AID 1990); format: functional, cell-based
BJ [5] = experiment: cells; format: functional, cell-based; details: Homo sapiens
INS1 = experiment: beta cell apoptosis inhibitors, cytokine rescue, dose response, luminescence, retest (AID 449756); format: functional, cell-based; details: Rattus norvegicus;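 note: cell death triggered by IL-1 beta plus TNF-alpha plus IFN-gamma mixture; protective hits raise ATP signal compared with cytokine alone wells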
[6] = Luminescence Cell-Based Dose Retest to Confirm Inhibitors of Cancer Stem Cells. [Related pubchem assays (depositor defined):AID2717, AID2721]; format: functional; details: Homo sapiens
[7] = Luminescence Cell-Based Dose Response HTS to Identify Inhibitors of 5'UTR Stem-Loop Driven Prion Protein mRNA Translation in H4 Neuroglioblastoma Cells. [Related pubchem assays: 1827 (Project Summary), 1813 (Primary HTS)]; format: functional
[8] = cytotoxicity toward DRD oncogenic fibroblasts, dose response, cell-based, non-viral oncogenic, luminescence (AID 1934); format: functional; details: Homo sapiens
Paired box protein Pax-8 = Paired box protein Pax-8 (Homo sapiens, UniProt Q06710); experiment: inhibitors of PAX8-driven TPO luciferase reporter, dose response, RMG-I cells, cherry-pick (AID 687027); format: functional, cell-based;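 note: luciferase reporter driven by Pax8 target thyroperoxidase promoter measured by SteadyGlo luminescence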
Sequence of Paired box protein Pax-8 (Q06710 whole entry): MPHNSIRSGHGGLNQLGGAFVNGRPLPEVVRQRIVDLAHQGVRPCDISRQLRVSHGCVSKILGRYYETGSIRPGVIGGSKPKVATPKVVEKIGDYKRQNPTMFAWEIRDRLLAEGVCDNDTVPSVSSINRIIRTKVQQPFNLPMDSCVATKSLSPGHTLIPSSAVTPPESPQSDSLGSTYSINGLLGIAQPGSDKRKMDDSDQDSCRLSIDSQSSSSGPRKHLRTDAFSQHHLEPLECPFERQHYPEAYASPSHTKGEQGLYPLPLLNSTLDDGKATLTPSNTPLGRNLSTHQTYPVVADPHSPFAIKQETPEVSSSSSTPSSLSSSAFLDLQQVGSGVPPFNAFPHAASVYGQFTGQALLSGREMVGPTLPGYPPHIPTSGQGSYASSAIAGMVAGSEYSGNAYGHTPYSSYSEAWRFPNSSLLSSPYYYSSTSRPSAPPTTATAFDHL

[9] = non-specific cell cytotoxicity, dose response, cytotoxicity control for PAX8 inhibitor project, plate reader, dry powder samples (AID 743021); format: functional, cell-based
[10] = HepG2 cell cytotoxicity, dose response, cytotoxicity control, cherry-picked samples (AID 1159577); format: functional, cell-based
[11] = P. falciparum Dd2 growth inhibitors, dose response, SYBR Green, cherry-picked samples (AID 1159567); format: functional, cell-based
[12] = ZM109 Env clade C HIV-1 fusion inhibitors, dose response, HeLa effector, CEM target cells, luciferase, cherry-pick (AID 652058); format: functional, cell-based
[13] = inhibitors of HIV Env-driven cell fusion, dose response, cherry-pick (AID 652057); format: functional, cell-based
[14] = inhibitors of clade B AD8 Env fusion, dose response, cell-based, cherry-pick (AID 652062); format: functional;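 note: luciferase signal from cell-cell fusion driven by HIV-1 clade B AD8 Env; potency is for inhibitors of fusion seen as a drop in luminescence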
[15] = biological target: T1, Mannose-6-phosphate isomerase (Homo sapiens, UniProt P34949); experiment: human PMI inhibitors, high substrate, primary screen, biochemical, fluorescence intensity, high mannose 6-phosphate (AID 1220)
T1 sequence (P34949 whole entry): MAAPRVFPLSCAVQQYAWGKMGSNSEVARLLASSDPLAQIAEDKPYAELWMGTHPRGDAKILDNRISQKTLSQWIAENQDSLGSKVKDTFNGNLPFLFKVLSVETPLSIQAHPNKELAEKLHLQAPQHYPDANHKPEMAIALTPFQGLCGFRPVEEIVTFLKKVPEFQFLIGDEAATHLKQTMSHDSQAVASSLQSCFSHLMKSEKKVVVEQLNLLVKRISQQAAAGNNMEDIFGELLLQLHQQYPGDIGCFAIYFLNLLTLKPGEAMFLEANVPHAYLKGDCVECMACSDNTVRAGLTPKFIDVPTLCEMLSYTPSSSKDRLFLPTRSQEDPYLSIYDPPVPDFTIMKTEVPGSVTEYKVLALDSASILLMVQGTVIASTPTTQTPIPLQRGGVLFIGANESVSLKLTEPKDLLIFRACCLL

[16] = biological target: T2, High affinity choline transporter 1 (Homo sapiens, UniProt Q9GZV3); experiment: CHT inhibitors, dose response, cell-based, 10-point CRC, membrane potential dye (AID 588401); format: functional;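 note: membrane potential dye fluorescence of choline-evoked depolarization via CHT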
T2 sequence (Q9GZV3 whole entry): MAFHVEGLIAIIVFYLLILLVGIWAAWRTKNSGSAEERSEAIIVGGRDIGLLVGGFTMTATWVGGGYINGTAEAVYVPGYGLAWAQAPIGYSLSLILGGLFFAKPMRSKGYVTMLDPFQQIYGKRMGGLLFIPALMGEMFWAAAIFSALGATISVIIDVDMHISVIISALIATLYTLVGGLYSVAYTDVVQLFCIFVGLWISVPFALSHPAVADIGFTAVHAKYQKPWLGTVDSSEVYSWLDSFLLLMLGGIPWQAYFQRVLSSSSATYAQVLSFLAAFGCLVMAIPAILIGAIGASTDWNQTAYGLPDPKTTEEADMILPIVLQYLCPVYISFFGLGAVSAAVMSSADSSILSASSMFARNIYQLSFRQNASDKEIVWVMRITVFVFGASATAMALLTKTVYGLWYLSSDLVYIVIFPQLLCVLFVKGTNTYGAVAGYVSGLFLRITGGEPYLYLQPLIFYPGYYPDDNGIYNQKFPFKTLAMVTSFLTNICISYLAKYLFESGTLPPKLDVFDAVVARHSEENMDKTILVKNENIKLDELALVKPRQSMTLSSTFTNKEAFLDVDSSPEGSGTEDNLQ

[17] = biological target: T2, High affinity choline transporter 1; experiment: CHT inhibitors, dose response, cell-based, 5-point CRC, membrane potential dye (AID 504840); format: functional
[18] = biological target: Beta-2 adrenergic receptor (Homo sapiens, UniProt P07550); experiment: beta2AR agonists driving receptor internalization, dose response, cell-based, FAP fluorogen, flow cytometry, cherry pick 1 (AID 588763); format: functional
Sequence of Beta-2 adrenergic receptor (P07550 whole entry): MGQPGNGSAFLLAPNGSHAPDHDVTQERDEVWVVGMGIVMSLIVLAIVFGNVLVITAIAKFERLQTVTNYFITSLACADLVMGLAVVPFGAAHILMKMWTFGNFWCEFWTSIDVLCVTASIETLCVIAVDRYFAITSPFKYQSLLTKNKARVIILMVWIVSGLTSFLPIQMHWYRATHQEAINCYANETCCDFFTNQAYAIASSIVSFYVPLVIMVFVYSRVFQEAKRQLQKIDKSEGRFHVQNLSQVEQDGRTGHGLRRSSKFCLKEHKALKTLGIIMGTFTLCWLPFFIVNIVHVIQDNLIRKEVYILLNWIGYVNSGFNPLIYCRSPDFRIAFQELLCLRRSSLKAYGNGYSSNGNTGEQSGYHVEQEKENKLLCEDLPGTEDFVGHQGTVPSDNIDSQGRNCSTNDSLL

[19] = biological target: T3, Heat shock factor protein 1 (Mus musculus, UniProt P38532); experiment: inhibition of MG132-induced HSE-luciferase signal, confirmation, cell-based, NIH3T3, luminescence, dose retest (AID 2382); format: functional;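 note: NIH3T3 fibroblasts with HSF1-driven luciferase reporter stressed by proteasome inhibitor MG132; luminescence from HSF1-driven luciferase expression after 8 hours of MG132 stress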
T3 sequence (P38532 whole entry): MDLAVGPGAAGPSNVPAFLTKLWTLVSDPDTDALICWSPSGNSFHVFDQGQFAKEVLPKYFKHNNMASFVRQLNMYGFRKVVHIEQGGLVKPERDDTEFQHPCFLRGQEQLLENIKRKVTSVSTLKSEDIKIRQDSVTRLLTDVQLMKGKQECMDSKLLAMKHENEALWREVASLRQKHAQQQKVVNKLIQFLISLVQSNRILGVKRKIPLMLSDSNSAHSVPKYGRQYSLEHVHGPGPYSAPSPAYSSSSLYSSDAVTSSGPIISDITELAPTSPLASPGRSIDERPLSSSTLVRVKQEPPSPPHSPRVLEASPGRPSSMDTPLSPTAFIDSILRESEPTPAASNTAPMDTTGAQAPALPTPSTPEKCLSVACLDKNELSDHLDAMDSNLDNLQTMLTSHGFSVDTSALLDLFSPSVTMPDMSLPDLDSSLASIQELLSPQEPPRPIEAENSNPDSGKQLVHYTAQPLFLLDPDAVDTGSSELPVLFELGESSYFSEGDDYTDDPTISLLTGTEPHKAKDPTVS

[20] = biological target: T4, DNA repair protein RAD52 homolog (Homo sapiens, UniProt P43351); format: functional, biochemical
T4 sequence (P43351 whole entry): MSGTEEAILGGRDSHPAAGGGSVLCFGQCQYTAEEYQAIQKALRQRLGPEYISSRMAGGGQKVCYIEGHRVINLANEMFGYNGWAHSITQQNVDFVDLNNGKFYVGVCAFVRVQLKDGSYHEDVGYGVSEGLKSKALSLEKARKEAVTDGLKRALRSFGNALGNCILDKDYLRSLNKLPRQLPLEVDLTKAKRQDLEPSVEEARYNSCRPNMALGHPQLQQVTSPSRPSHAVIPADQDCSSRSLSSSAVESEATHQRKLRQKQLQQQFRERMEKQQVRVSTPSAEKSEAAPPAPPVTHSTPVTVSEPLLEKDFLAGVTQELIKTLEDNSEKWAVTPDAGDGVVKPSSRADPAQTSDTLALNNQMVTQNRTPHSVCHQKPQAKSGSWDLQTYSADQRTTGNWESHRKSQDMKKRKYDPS

[21] = off-target signal loss in HeLa-CEM21 co-culture – HeLa F-luc CTL cells, cherry-picked, counter-screen for HIV-1 Env fusion inhibitor project, dose response (AID 652040); format: functional, cell-based;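 note: potency for signal decrease marking cytotoxic or nonspecific inhibition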
[22] = cytotoxicity in HEK-293T cells, dose response, cytotoxicity control for TCR NF-kB inhibitor project, luminescence, T-cell screen hits (AID 489026); format: functional, cell-based;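 note: cells exposed to compound about 14 hours before the viability readout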

COc1ccc(/C=C/C(=O)c2ccc([N+](=O)[O-])o2)cc1OC
EC50 (BJ [1]): > 150 µM (not active) | EC50 (BJ [2]): 1.15 µM (inconclusive) | EC50 [3]: > 120 µM (not active) | EC50 [4]: 9.14 µM (active) | EC50 (BJ [5]): > 150 µM (inconclusive) | AC50 (INS1): 3.94 µM (active) | AC50 [6]: 2.09 µM (active) | EC50 [7]: 10.5 µM (active) | EC50 [8]: 2.58 µM (inconclusive)

COc1cccc(NC(=O)Nc2nc(-c3ccc(OC)c(OC)c3)cs2)c1
EC50 (BJ [1]): 5.89 µM (active) | EC50 (BJ [2]): 9.04 µM (inconclusive) | EC50 (BJ [5]): 8.03 µM (active) | AC50 (Paired box protein Pax-8): 7.88 µM (active) | EC50 [8]: 5.56 µM (active) | AC50 [9]: 12.3 µM (active)

CCCN(C)C[C@H]1Oc2ncc(C#Cc3ccc(OC)cc3)cc2C(=O)N([C@@H](C)CO)C[C@H]1C
AC50 [10]: 28.8 µM (active) | AC50 [11]: 2.78 µM (active)

CCC(=O)N(C)C[C@@H]1Oc2cc(C#Cc3ccccc3)ccc2S(=O)(=O)N([C@H](C)CO)C[C@H]1C
AC50 [12]: 1.58 µM (active) | AC50 [13]: 7.15 µM (active) | AC50 [14]: 54.8 µM (active)

COc1ccc2c3c(n(C)c2c1)[C@@H](CO)N(Cc1ccc(F)cc1)CC31CCN(CC2CC2)CC1
AC50 [10]: > 39 µM (inactive) | AC50 [11]: 3.48 µM (active)

COc1ccc(-c2ccc(C(=O)O)o2)c([N+](=O)[O-])c1
IC50 [15]: > 50 µM (not active)

Cc1ccccc1NC(=O)c1ccc(C)c(S(=O)(=O)NCc2cccnc2)c1
IC50 [16]: 5.77 µM (active) | IC50 [17]: 9.77 µM (active)

CCCCOc1cccc(C(=O)Nc2ccc(NC(=O)c3cccs3)cc2)c1
EC50 [18]: 0.256 µM (active) | EC50 [19]: 9.51 µM (active)

CN(C)CCCNc1nc2cc(-c3cccc(C(F)(F)F)c3)sc2c(=O)n1C
AC50 [20]: 7.9 µM (active)

NC1(N2SC(S)=C3CCCC=C32)CCCCC1
AC50 [20]: 12.1 µM (active)

COC(=O)C1(C(=O)OC)C[C@H](c2ccccc2)N(Cc2ccccc2OC)[C@@H]1c1ccccc1
AC50 [12]: 1.75 µM (active) | AC50 [13]: 1.65 µM (active) | AC50 [14]: 2.41 µM (active) | AC50 [21]: 3.26 µM (active)

COc1cc([C@@H]2c3cc4c(cc3[C@@H](OC)[C@H]3COC(=O)[C@H]23)OCO4)cc(OC)c1O
IC50 [22]: > 80 µM (inactive)

CCC(=O)c1ccc(OCC(=O)N2CCN(CC(=O)Nc3ccc(C)cc3)CC2)cc1
EC50 [18]: 0.0646 µM (active)

COc1ccc(NC(=S)Nc2ccc3nccnc3c2)cc1
IC50 [15]: > 50 µM (not active)
